Values of other authors in patent US12343373B2, “Glycopeptide antibiotics liquid formulations and methods and uses thereof” (SOMERSET THERAPEUTICS, LLC, priority 2020, dated 2025).
Where two headings read alike, the source gives them in different places.

Experiments:
[1] = oral dosing

Molecule	hydrolysis to methionine [1]	further results
CC(=O)N[C@H](C)C(=O)O [N-acetyl D-alanine (NADA), N-acetyl-D-alanine]	–	embryo-fetal toxicity (animal reproduction studies, product label black box warning): caused fetal malformations
polyethylene glycol 400 [polyethylene glycol (PEG 400)]	–	embryo-fetal toxicity (in vivo): caused fetal malformations
CSCC[C@@H](NC(C)=O)C(=O)O [NADM, N-acetyl-D-methionine]	only minimally hydrolyzed to D- and L-methionine	–
CSCC[C@H](NC(C)=O)C(=O)O [NALM, N-acetyl-L-methionine]	completely hydrolyzed to L-methionine and acetic acid	–
